Experiments:
Assay type in all cases: cell-based
Details in all cases: Oocyte
[1] = biological target: Glutamate NMDA receptor; GRIN1/GRIN2A (Homo sapiens) (UniProt Q05586+Q12879); assay: Blockade of human recombinant NR1/NR2A expressed in xenopus oocytes assessed as inhibition of L-glutamate/glycine-induced whole-cell current at 10 uM at holding potential of -60 mV by electrophysiological assay relative to control
[2] = biological target: Transient receptor potential cation channel subfamily V member 1 (Rattus norvegicus) (UniProt O35433); assay: Blockade of rat recombinant TRPV1 expressed in xenopus oocytes assessed as inhibition of capsaicin-induced whole-cell current at 10 uM at holding potential of -60 mV by electrophysiological assay relative to control
Transient receptor potential cation channel subfamily V member 1 (Rattus norvegicus), sequence (O35433 whole entry): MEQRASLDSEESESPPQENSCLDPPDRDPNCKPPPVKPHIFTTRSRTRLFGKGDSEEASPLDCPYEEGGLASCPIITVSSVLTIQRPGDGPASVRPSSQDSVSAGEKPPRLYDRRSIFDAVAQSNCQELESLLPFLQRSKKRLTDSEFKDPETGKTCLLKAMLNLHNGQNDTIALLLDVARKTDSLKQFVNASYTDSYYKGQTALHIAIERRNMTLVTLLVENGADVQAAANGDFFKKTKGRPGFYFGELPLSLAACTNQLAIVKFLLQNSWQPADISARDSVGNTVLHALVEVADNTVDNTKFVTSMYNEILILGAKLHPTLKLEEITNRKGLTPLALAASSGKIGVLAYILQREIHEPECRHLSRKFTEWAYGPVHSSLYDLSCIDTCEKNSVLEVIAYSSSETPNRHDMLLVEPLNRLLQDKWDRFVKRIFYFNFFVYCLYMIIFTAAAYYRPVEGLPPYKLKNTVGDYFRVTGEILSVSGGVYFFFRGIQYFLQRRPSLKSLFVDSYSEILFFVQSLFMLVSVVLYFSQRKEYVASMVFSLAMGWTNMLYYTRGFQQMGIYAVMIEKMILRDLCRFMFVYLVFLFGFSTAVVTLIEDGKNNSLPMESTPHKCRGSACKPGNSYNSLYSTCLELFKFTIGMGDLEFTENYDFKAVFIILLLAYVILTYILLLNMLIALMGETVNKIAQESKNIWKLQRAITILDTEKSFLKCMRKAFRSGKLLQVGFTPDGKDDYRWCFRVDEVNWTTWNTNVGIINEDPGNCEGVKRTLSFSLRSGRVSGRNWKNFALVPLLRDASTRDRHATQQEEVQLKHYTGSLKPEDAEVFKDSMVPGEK

[3] = biological target: Transient receptor potential cation channel subfamily V member 1 (Rattus norvegicus) (UniProt O35433); assay: Blockade of rat recombinant TRPV1 expressed in xenopus oocytes assessed as inhibition of capsaicin-induced whole-cell current at 1 uM at holding potential of -60 mV by electrophysiological assay relative to control

inhibition [1] [%]	inhibition [2] [%]	inhibition [3] [%]	Structure (SMILES)
12	56.3		NC(=O)[C@H](Cc1c(Sc2ccccc2[N+](=O)[O-])[nH]c2ccccc12)N1C(=O)N[C@@H](CCN=C(N2CCCC2)N2CCCC2)C1=O
10.7	60.4		NC(=O)[C@H](Cc1c(Sc2ccccc2[N+](=O)[O-])[nH]c2ccccc12)N1C(=O)N[C@@H](CCCCN=C(N2CCCC2)N2CCCC2)C1=O
15.4	14.3		CC(=O)N[C@@H](CCCCN)C(=O)N[C@@H](Cc1c(Sc2ccccc2[N+](=O)[O-])[nH]c2ccccc12)C(N)=O
9.3	13		CN(C)C(=NCCCC[C@@H]1NC(=O)N([C@@H](Cc2c(Sc3ccccc3[N+](=O)[O-])[nH]c3ccccc23)C(N)=O)C1=O)N(C)C
23.6	17		NCCCC[C@H](N)C(=O)N[C@@H](Cc1c(Sc2ncccc2[N+](=O)[O-])[nH]c2ccccc12)C(N)=O
30.3	49.9		CC(=O)N[C@@H](CN=C(N1CCCC1)N1CCCC1)C(=O)N[C@@H](Cc1c(Sc2ccccc2[N+](=O)[O-])[nH]c2ccccc12)C(N)=O
10.8	40.9		CN(C)C(=NCCCC[C@@H]1NC(=O)N([C@@H](Cc2c(Sc3ncccc3[N+](=O)[O-])[nH]c3ccccc23)C(N)=O)C1=O)N(C)C
13.9	76.1	23.5	NC(=O)[C@H](Cc1c(Sc2ccccc2[N+](=O)[O-])[nH]c2ccccc12)NC(=O)[C@@H](N)CCN=C(N1CCCC1)N1CCCC1
25.8	29.2		CC(=O)N[C@@H](CCCN=C(N)N)C(=O)N[C@@H](Cc1c(Sc2ccccc2[N+](=O)[O-])[nH]c2ccccc12)C(N)=O
32.2	29		CC(=O)N[C@@H](CCCC[N+](C)(C)C)C(=O)N[C@@H](Cc1c(Sc2ccccc2[N+](=O)[O-])[nH]c2ccccc12)C(N)=O
27	14.6		CC(=O)N[C@@H](CN)C(=O)N[C@@H](Cc1c(Sc2ccccc2[N+](=O)[O-])[nH]c2ccccc12)C(N)=O
9.6	42.4		CC(=O)N[C@@H](CCN=C(N1CCCC1)N1CCCC1)C(=O)N[C@@H](Cc1c(Sc2ccccc2[N+](=O)[O-])[nH]c2ccccc12)C(N)=O
26.8	24.6		NCCCC[C@@H]1NC(=O)N([C@@H](Cc2c(Sc3ncccc3[N+](=O)[O-])[nH]c3ccccc23)C(N)=O)C1=O
43.7	51.3		NC(=O)[C@H](Cc1c(Sc2ccccc2[N+](=O)[O-])[nH]c2ccccc12)N1C(=O)N[C@@H](CN=C(N2CCCC2)N2CCCC2)C1=O
13.6	12.7		CC(=O)N[C@@H](CCCCN)C(=O)N[C@@H](Cc1c(Sc2ncccc2[N+](=O)[O-])[nH]c2ccccc12)C(N)=O
7.7	62.8	18.7	NC(=O)[C@H](Cc1c(Sc2ccccc2[N+](=O)[O-])[nH]c2ccccc12)NC(=O)[C@@H](N)CCCN=C(N)N
6.4	44		CC(=O)N[C@@H](CCCCN=C(N1CCCC1)N1CCCC1)C(=O)N[C@@H](Cc1c(Sc2ccccc2[N+](=O)[O-])[nH]c2ccccc12)C(N)=O
6.8	97.2	27.3	NC(=O)[C@H](Cc1c(Sc2ccccc2[N+](=O)[O-])[nH]c2ccccc12)NC(=O)[C@H](CCCCN=C(N1CCCC1)N1CCCC1)N=C(N1CCCC1)N1CCCC1
18.4	29.9		NC[C@@H]1NC(=O)N([C@@H](Cc2c(Sc3ccccc3[N+](=O)[O-])[nH]c3ccccc23)C(N)=O)C1=O

inhibition [1] [%]	inhibition [2] [%]	inhibition [3] [%]	Structure (SMILES)
30.2	16.6		CC(=O)N[C@@H](CCCCN=C(N1CCCC1)N1CCCC1)C(=O)N[C@@H](Cc1c(Sc2ncccc2[N+](=O)[O-])[nH]c2ccccc12)C(N)=O
9.2	66.5	17.4	C[N+](C)(C)CCCC[C@@H]1NC(=O)N([C@@H](Cc2c(Sc3ccccc3[N+](=O)[O-])[nH]c3ccccc23)C(N)=O)C1=O
29.7	20.6		NCC[C@H](N)C(=O)N[C@@H](Cc1c(Sc2ccccc2[N+](=O)[O-])[nH]c2ccccc12)C(N)=O
20.2	50.2		NC(=O)[C@H](Cc1c(Sc2ccccc2[N+](=O)[O-])[nH]c2ccccc12)N1C(=O)N[C@@H](CCCN=C(N)N)C1=O
16	11		NCC[C@@H]1NC(=O)N([C@@H](Cc2c(Sc3ccccc3[N+](=O)[O-])[nH]c3ccccc23)C(N)=O)C1=O
13.5	26.3		NCCCC[C@H](N)C(=O)N[C@@H](Cc1c(Sc2ccccc2[N+](=O)[O-])[nH]c2ccccc12)C(N)=O
26.3	23.9		CC(=O)N[C@@H](CCCN=C(N)N)C(=O)N[C@@H](Cc1c(Sc2ncccc2[N+](=O)[O-])[nH]c2ccccc12)C(N)=O
12.9	52.5		NC(=O)[C@H](Cc1c(Sc2ncccc2[N+](=O)[O-])[nH]c2ccccc12)N1C(=O)N[C@@H](CCCCN=C(N2CCCC2)N2CCCC2)C1=O
27.2	27.6		CC(=O)N[C@@H](CCN)C(=O)N[C@@H](Cc1c(Sc2ccccc2[N+](=O)[O-])[nH]c2ccccc12)C(N)=O
6.1	19.9		CC(=O)N[C@@H](CCCCN=C(N(C)C)N(C)C)C(=O)N[C@@H](Cc1c(Sc2ccccc2[N+](=O)[O-])[nH]c2ccccc12)C(N)=O
69.7	49.7	21.1	CN(C)C(=NCCCC[C@H](N)C(=O)N[C@@H](Cc1c(Sc2ccccc2[N+](=O)[O-])[nH]c2ccccc12)C(N)=O)N(C)C
24	39.3		NC[C@H](N)C(=O)N[C@@H](Cc1c(Sc2ccccc2[N+](=O)[O-])[nH]c2ccccc12)C(N)=O
20.6	12		CC(=O)N[C@@H](CCCCN=C(N(C)C)N(C)C)C(=O)N[C@@H](Cc1c(Sc2ncccc2[N+](=O)[O-])[nH]c2ccccc12)C(N)=O
20.6	44.8		NC(=O)[C@H](Cc1c(Sc2ncccc2[N+](=O)[O-])[nH]c2ccccc12)NC(=O)[C@@H](N)CCCN=C(N)N
20.6	19.9		C[N+](C)(C)CCCC[C@@H]1NC(=O)N([C@@H](Cc2c(Sc3ncccc3[N+](=O)[O-])[nH]c3ccccc23)C(N)=O)C1=O
10.5	15.4		NCCCC[C@@H]1NC(=O)N([C@@H](Cc2c(Sc3ccccc3[N+](=O)[O-])[nH]c3ccccc23)C(N)=O)C1=O
8.3	55.8		NC(=O)[C@H](Cc1c(Sc2ccccc2[N+](=O)[O-])[nH]c2ccccc12)NC(=O)[C@@H](N)CCCCN=C(N1CCCC1)N1CCCC1
24.2	54.3		NC(=O)[C@H](Cc1c(Sc2ncccc2[N+](=O)[O-])[nH]c2ccccc12)N1C(=O)N[C@@H](CCCN=C(N)N)C1=O
5.5	36.7		C[N+](C)(C)CCCC[C@H](N)C(=O)N[C@@H](Cc1c(Sc2ccccc2[N+](=O)[O-])[nH]c2ccccc12)C(N)=O

From ChEMBL document CHEMBL1777688, “TRPV1 modulators: structure-activity relationships using a rational combinatorial approach” (Bioorg Med Chem Lett, 2011)
